# Measured values: patent US6335339B1, “Triazine antiviral compounds” (Scriptgen Pharmaceuticals, Inc., priority 1998, dated 2002)
# Assays:
# 2.2.15 cells = experiment: neutral red dye uptake cytotoxicity; format: cell-based; settings: 9 days treatment, read-out: 50% Cell Death CC50
# Procedure: Further, the antiviral effect of any compound must be measured against its toxicity. Cytotoxicity is measured by the neutral red uptake method using the same cells used for antiviral activity.
# 2b. Compounds were prepared for toxicity treatment as follows: For each compound, a total of 4 concentrations were examined. This required 9 sets of 4 sterile, 1.1 ml minitubes (36 tubes per compound). Into the first tube of each set, sufficient compound was aliquoted to make up 465 μl of the highest test concentration. The other tubes were left empty. The tubes were covered with the rack lids, and stored at −20° C. or at an appropriate temperature. Tubes for the last day of treatment for toxicity testing contain the same amount of compound as used the previous days (not 3xas for the antiviral assays).
# 3b. The cytotoxicity of test compounds was analyzed in a 3.3-fold dilution series as follows. […] (155 μl×3) of RP2 were added to the first tube (containing the aliquot of compound) and 310 μL (155 μl×2) RP2 to each of the 3 remaining tubes. 150 μl of test compound-containing medium were serially transferred from the first tube to the other 3 tubes.
# 5. A single plate was used for the toxicity treatments for each test compound (up to 7 compounds per plates since the top row were reserved for untreated cells on every toxicity plate). To initiate the treatments, the culture medium was removed, and 100 μl of each dilution of every compound were added to each of 3 wells using a configuration similar to that shown above for the antiviral treatments. The untreated cells received 100 μl RP2 per well. Treatment was repeated daily for 9 days.
# The antiviral effect of any compound was evaluated relative to its toxicity. Cells were seeded and treated following the guidelines above, after which a neutral red dye uptake assay was performed to assess toxicity as described below. Other assays of cytotoxicity (e.g., MTT) can be substituted for the procedure described below. Note that this procedure assesses toxicity under culture and treatment conditions which are identical to those used for the antiviral analyses, thereby permitting a determination as to whether the reduction in virus production due to a specific antiviral effect or due to a cytotoxic effect on the host cell. Since the cultures, by necessity, are at confluence, the cytotoxic effects of the test compounds will probably be reduced relative to the cytotoxic effects that would be expected for actively dividing cells.
# 1. Cultures were treated with test compounds on the designated toxicity plates as described above.
# 2. The culture medium was carefully removed 24 hours following the 9th day of treatment. The monolayer was fully removed in the top left three wells (row A, col. 1-3). These wells were used as “blanks” for the plate reader.
# 3. 100 μl DPBS (containing 0.01% neutral red dye) were added to each well, including the empty wells, and Incubated in the tissue culture incubator for 30 minutes.
# 4. The dye was removed carefully and gently, using a multichannel pipetman since the monolayers can become fragile after incubation with neutral red dye. 200 μl DPBS were added to all the wells taking care not to displace the monolayers. The DPBS was removed and 100 μl 50% EtOH/1% glacial acetic acid (in H2O) were added to each well. The plates were mixed for 15 minutes on an orbital platform shaker (120-150 RPM) to allow for full extraction of the dye from the cells.
# 5. Optical absorbance at 510 nm was read in an ELISA type plate reader, using the 3 empty wells to set the background. An average absorbance value was calculated for the 9 untreated cultures on a plate, and the absorbance of dye for the treated cultures on the same plate was expressed as a percentage of that value. This procedure was repeated for each individual plate. […]
# HBV = experiment: antiviral assay in 2.2.15 cells producing HBV (virion DNA dot blot); format: cell-based, Hepatitis B virus; settings: extra-cellular virus reduced by 50%; 2.2.15 cells, 9 days treatment; read-out: Antiviral EC50
# Text: Several cell lines and cell culture assays have been developed to identify potential therapeutics effective against chronic HBV infection. One of these cell lines, 2.2.15, has been used in a standardized assay that has repeatedly proven to be an accurate model of chronic cellular HBV replication and a predictive model of antiviral response for chronic hepadnaviral infection in vivo. 2.2.15 cells contain copies of the complete HBV genome integrated into the cell's genome, and 2.2.15 cells are not susceptible to infection by HBV. (Sells, M. A. et al., J. Virol. 62 (8): 2836-2844 (1988)). These cells express HBV genes producing complete HBV particles capable of infecting chimpanzees (Acs, G. et al., Proc. Natl. Acad. Sci. USA 84 (13): 4641-4644 (1987)). Briefly, 2.2.15 cells are cultured and pretreated with a test compound for about 9 days, at which point the media are harvested and subjected to dot-blot hybridization to detect HBV virion DNA.
# The antiviral activity of the compounds of the present invention is measured by the methods described in Korba and Gering, Antiviral Res. 19: 55-70 (1992).
# This assay format is well suited to the screening of test compounds for potential antiviral activity. The assay provides a threshold assessment of antiviral activity by measuring (i) the levels of HBV virion release from the cells and (ii) cytotoxicity. Two rows of cells were used for each compound, and 4 rows for the assay controls (two for untreated, and two for positive antiviral control, e.g., 3TC). After incubating in the presence of test compound for 9 days, the media were harvested, transferred to 96-well U-bottom plates, and centrifuged. The supernatants were transferred to tubes for dot blot hybridization analysis of HBV virion DNA. The medium was aspirated off of the toxicity plates and discarded. Toxicity plates were then incubated with neutral red dye (MTT can also be used if preferred), washed with DPBS, developed with an acetic acid-ethanol solution, and assayed in a plate reader.
# 1. 2.2.15 cells were seeded into 96-well, flat bottom tissue culture plates as described above. Duplicate plates were used for the antiviral treatments for each test compound (up to 8 compounds per pair of plates); after three to four days, cells were confluent and medium was yellow in color; the medium was removed and replaced with 100 μl RP2 24 hours before the beginning of drug treatment.
# i) For each compound, a total of 4 concentrations were examined; this required 9 sets of 4 sterile, 1.1 ml minitubes (36 tubes per compound). Into the first tube of each set, sufficient compound was aliquoted to make up 700 μl (for 10-fold dilution series) or 980 μl (for 3.3-fold dilution series) of the highest test concentration; the other tubes were left empty.
# i) For a 10-fold dilution series: to the first (compound containing) tube was added 700 μl (175 μl×4). 630 μl (210 μl×3) RP2 culture medium was added to the remaining 3 tubes. The first tube was mixed by pipeting up and down with a pipetman (a multichannel pipetman permits the simultaneous processing of multiple compounds). 70 μl of test compound-containing medium were serially transferred from the first tube to the other 3 tubes, taking care to thoroughly mix each tube before transferring medium;
# b) 100 μl of each dilution of every compound was added to each of 6 wells (3 wells per plate) using the configuration listed below as an example. The lowest concentration was added first, and the same tips were used to add the higher concentrations. The untreated cells received 100 μl RP2 per well (untreated cells have to be carried on only one pair of the antiviral assay plates).
# c) Treatments were repeated daily for 9 days. For the last day of treatment, and additional 200 μl RP2 were added to each well of the antiviral assay plates after the wells are treated with the test compounds (a total of 300 μl medium per well).
# 6. […]
smiles,measurement,setting,value
Oc1ccc(Cl)cc1C=NNc1nc(Nc2ccc3ccccc3c2)nc(N2CCOCC2)n1 [Compound 160],CC50,2.2.15 cells,> 300 µM
same,EC50,HBV,0.42 µM
COc1c(C=NNc2nc(NCc3ccccc3)nc(Nc3ccccc3)n2)cccc1[N+](=O)[O-] [Compound 162],CC50,2.2.15 cells,436 µM
same,EC50,HBV,0.923 µM
Brc1cccc(C=NNc2nc(Nc3ccccc3)nc(N3CCOCC3)n2)c1 [Compound 163],CC50,2.2.15 cells,150 µM
same,EC50,HBV,0.958 µM
COc1ccc(Nc2nc(NN=Cc3ccc(O)cc3O)nc(N3CCOCC3)n2)cc1 [Compound 164],CC50,2.2.15 cells,201 µM
same,EC50,HBV,0.863 µM
COc1ccc(C=NNc2nc(NCc3ccccc3)nc(Nc3ccccc3)n2)cc1 [Compound 165],CC50,2.2.15 cells,> 300 µM
same,EC50,HBV,3.8 µM
Ic1cccc(C=NNc2nc(Nc3ccc4ccccc4c3)nc(N3CCOCC3)n2)c1 [Compound 166],CC50,2.2.15 cells,252 µM
same,EC50,HBV,1.4 µM
Oc1ccc2ccccc2c1C=NNc1nc(Nc2cccc3ccccc23)nc(N2CCOCC2)n1 [Compound 167],CC50,2.2.15 cells,161 µM
same,EC50,HBV,1.7 µM
COc1c(C=NNc2nc(Nc3ccccc3)nc(Nc3ccccc3)n2)ccc(Br)c1O [Compound 168],CC50,2.2.15 cells,> 300 µM
same,EC50,HBV,0.7 µM
Oc1ccccc1C=NNc1nc(Nc2ccccc2)nc(N2CCCCC2)n1 [Compound 169],CC50,2.2.15 cells,> 300 µM
same,EC50,HBV,2.5 µM
COc1cccc(C=NNc2nc(Nc3ccccc3)nc(N3CCCC3)n2)c1O [Compound 170],CC50,2.2.15 cells,499 µM
same,EC50,HBV,4 µM
CCN(CC)c1nc(NN=Cc2c(O)ccc3ccccc23)nc(Nc2ccccc2)n1 [Compound 171],CC50,2.2.15 cells,174 µM
same,EC50,HBV,5 µM
Cc1cccc(C(=O)Oc2ccc(C=NNc3nc(N4CCCCC4)nc(N4CCCCC4)n3)cc2)c1 [Compound 181],CC50,2.2.15 cells,> 300 µM
same,EC50,HBV,6 µM
CC(=NNc1nc(NCc2ccccc2)nc(Nc2ccccc2)n1)c1ccc([N+](=O)[O-])cc1 [Compound 182],CC50,2.2.15 cells,> 300 µM
same,EC50,HBV,54 µM
CC(=NNc1nc(Nc2ccccc2)nc(N2CCCC2)n1)c1ccc([N+](=O)[O-])cc1 [Compound 183],CC50,2.2.15 cells,> 300 µM
same,EC50,HBV,52 µM
Cc1ccc(Nc2nc(NCc3ccccc3)nc(NN=Cc3ccc(F)cc3F)n2)cc1C [Compound 191],CC50,2.2.15 cells,836 µM
same,EC50,HBV,> 100 µM
CN(C)c1nc(NCc2ccccc2)nc(NCc2cccs2)n1 [Compound 192],CC50,2.2.15 cells,739 µM
same,EC50,HBV,> 100 µM
COc1c(C=NNc2nc(N3CCCC3)nc(N3CCOCC3)n2)cccc1[N+](=O)[O-] [Compound 193],CC50,2.2.15 cells,666 µM
same,EC50,HBV,> 100 µM
Cc1ccc(Nc2nc(NCc3ccccc3)nc(Nc3ccc([N+](=O)[O-])cc3)n2)cc1C [Compound 194],CC50,2.2.15 cells,626 µM
same,EC50,HBV,> 100 µM
COc1ccccc1C=NNc1nc(NCc2ccccc2)nc(Nc2ccccc2)n1 [Compound 195],CC50,2.2.15 cells,400 µM
same,EC50,HBV,> 100 µM
Cc1ccc(Nc2nc(NN=Cc3ccc(Cl)cc3)nc(N3CCOCC3)n2)cc1Cl [Compound 196],CC50,2.2.15 cells,381 µM
same,EC50,HBV,> 100 µM
COc1ccc(Nc2nc(NN=Cc3cc(Br)cc(Br)c3O)nc(N3CCOCC3)n2)cc1 [Compound 200],CC50,2.2.15 cells,309 µM
same,EC50,HBV,> 100 µM
Fc1cccc(C=NNc2nc(Nc3ccccc3)nc(N3CCCC3)n2)c1 [Compound 201],CC50,2.2.15 cells,> 300 µM
same,EC50,HBV,> 100 µM
CCN(CC)c1nc(Nc2cccc(Br)c2)nc(Nc2cc(C)ccc2C)n1 [Compound 202],CC50,2.2.15 cells,> 300 µM
same,EC50,HBV,> 100 µM
O=C(CSc1nc(SCC(=O)Nc2ccccc2C(F)(F)F)nc(SCC(=O)Nc2ccccc2C(F)(F)F)n1)Nc1ccccc1C(F)(F)F [Compound 212],CC50,2.2.15 cells,> 300 µM
same,EC50,HBV,> 100 µM
C(=Cc1ccccc1)C=NNc1nc(Nc2ccccc2)nc(N2CCCC2)n1 [Compound 213],CC50,2.2.15 cells,> 300 µM
same,EC50,HBV,> 100 µM
CCN(CC)c1nc(NN=Cc2ccc(Cl)c([N+](=O)[O-])c2)nc(Nc2cc(C)ccc2C)n1 [Compound 214],CC50,2.2.15 cells,> 300 µM
same,EC50,HBV,> 100 µM
Clc1ccc(C=NNc2nc(Nc3ccccc3)nc(N3CCCC3)n2)cc1 [Compound 218],CC50,2.2.15 cells,> 300 µM
same,EC50,HBV,> 100 µM
Cc1ccc(Nc2nc(NCc3ccccc3)nc(NN=Cc3cc(Br)cc(Br)c3O)n2)cc1C [Compound 219],CC50,2.2.15 cells,> 300 µM
same,EC50,HBV,> 100 µM
O=C(NNc1nc(Nc2ccccc2)nc(Nc2cccc(C(F)(F)F)c2)n1)c1cccc(Br)c1 [Compound 220],CC50,2.2.15 cells,> 300 µM
same,EC50,HBV,> 100 µM
CN(C)c1nc(NCc2ccccc2)nc(NN=Cc2ccc(Cl)cc2Cl)n1 [Compound 224],CC50,2.2.15 cells,> 300 µM
same,EC50,HBV,> 100 µM
COc1ccc(Nc2nc(NCc3cccc([N+](=O)[O-])c3)nc(NCc3cc(F)ccc3F)n2)cc1OC [Compound 225],CC50,2.2.15 cells,281 µM
same,EC50,HBV,> 100 µM
Cc1ccc(Nc2nc(NCc3ccccc3)nc(NN=Cc3cc(Cl)ccc3O)n2)cc1C [Compound 226],CC50,2.2.15 cells,280 µM
same,EC50,HBV,> 100 µM
CC(=NNc1nc(Nc2ccccc2)nc(N2CCCC2)n1)c1ccc(F)cc1 [Compound 227],CC50,2.2.15 cells,247 µM
same,EC50,HBV,> 100 µM
Cc1ccc(Nc2nc(NCc3ccccc3)nc(NN=Cc3ccccc3F)n2)cc1C [Compound 228],CC50,2.2.15 cells,243 µM
same,EC50,HBV,> 100 µM
Cc1ccc(Nc2nc(NN=Cc3cccc([N+](=O)[O-])c3)nc(Nc3ccccc3)n2)c(C)c1 [Compound 229],CC50,2.2.15 cells,237 µM
same,EC50,HBV,> 100 µM
Brc1ccc(Nc2nc(NCc3ccccc3)nc(Nc3ccc(Br)cc3)n2)cc1 [Compound 230],CC50,2.2.15 cells,231 µM
same,EC50,HBV,> 100 µM
O=[N+]([O-])c1ccc(Nc2nc(NCc3ccccc3)nc(N3CCOCC3)n2)cc1 [Compound 231],CC50,2.2.15 cells,218 µM
same,EC50,HBV,> 100 µM
